One molecule from patent publication US8716226B2, “3,5 phenyl-substituted beta amino acid derivatives as integrin antagonists” (Saint Louis University, priority 2012, dated 2014) can be followed below.

The subject of experiment [1] is TGFβ activation by recombinant human integrin αvβ6. Description: Integrin-mediated TGFβ activation assay (MLEC-PAI/L luciferase reporter co-cultured with SW480-β6 cells). It counts as cell-based. The settings on record: MLEC-PAI/L reporter cells co-cultured overnight with SW480-β6 cells. How it is done:
Integrin-Mediated TGFβ Activation Assay.
Mink lung epithelial cells stably transfected with a luciferase reporter driven by a portion of the TGFβ-responsive Plasminogen Activator Inhibitor promoter (MLEC-PAI/L) were seeded at a density of 25,000/well in a white-walled, clear-bottom 96-well culture plate (Costar 3610) in 100 μL of assay medium (phenol red-free DMEM+10% fetal bovine serum). The cells were incubated for one hour in ambient air at room temperature, then at 37° C. for three hours in 5% CO2 to allow cell attachment. The medium was aspirated from the wells and 50 μL of compound diluted to 2× in assay medium was applied to each well, followed by 50 μL of assay medium containing 25,000 SW480-β6 cells, a cell line which stably overexpresses recombinant human integrin αvβ6. […] Following overnight co-culture incubation under standard conditions, the assay medium was aspirated from the wells, and a foil seal was applied to the bottom of the plate to prevent cross-detection of luminescence between the sample wells. […] The assay plate was then read immediately on a luminometer. Data was analyzed by first subtracting the mean substrate blank value from all samples, then dividing by the mean value of the MLEC-PAI/L baseline group to yield a “relative luciferase activity” value (RLA). […]

Experiment [2] deals with T1, α5β1 (Homo sapiens, UniProt P05556+P08648).
T1 construct: K562 cells (American Type Culture Collection, Manassas, Va.) which naturally express high levels of α5β1; endogenous in cells; host or cells: K562 (human erythroleukemia, ATCC)
Description: K562 cell adhesion assay for α5β1 function. It counts as cell-based. Particulars: K562 cells, adhesion to human plasma fibronectin. How it is done:
K562 Cell Adhesion Assay for α5β1 Function.
Purified human plasma fibronectin (Calbiochem/EMD Biosciences) diluted to 5 μg/ml in TS buffer (25 mM Tris 7.4, 150 mM NaCl) was added to wells (100 μl/well) of a 96-well microtiter plate (Immulon 2HB 96-well; VWR Scientific) and incubated overnight at 4° C. The solution in each well was then replaced with 200 μl of blocking buffer (TS with 1% bovine serum albumin), and the plate incubated for 1 hr at 37° C. Compounds were diluted in test tubes to 2× the peak testing concentration in cell adhesion buffer consisting of Hanks Buffered Salts Solution (HBSS, cation-free, Sigma), 0.1% bovine serum albumin, 25 mM HEPES, and 200 μM MnCl2. […] The cells were washed with the cell adhesion buffer, counted using a hemocytometer, centrifuged and resuspended in cell adhesion buffer at 3×10^6 cells/ml. […] Remaining attached cells were detected by addition of 100 μl/well p-nitrophenylphosphate (Sigma) solution (15 mg tablet dissolved in 25 ml 50 mM NaAcetate, pH 5; 0.5% Triton-X-100), incubation for 30 min at 37° C., and then addition of 50 μl/well 1N NaOH to stop the enzyme reaction. Plates were read by colorimetric detection at 405 nm wavelength using a Tecan Safire II plate reader. Concentration-response curves were constructed by non-linear regression (best fit) analysis, and IC50 values were calculated for each compound. […]

T1 sequence (P08648 42-894 limits assumed): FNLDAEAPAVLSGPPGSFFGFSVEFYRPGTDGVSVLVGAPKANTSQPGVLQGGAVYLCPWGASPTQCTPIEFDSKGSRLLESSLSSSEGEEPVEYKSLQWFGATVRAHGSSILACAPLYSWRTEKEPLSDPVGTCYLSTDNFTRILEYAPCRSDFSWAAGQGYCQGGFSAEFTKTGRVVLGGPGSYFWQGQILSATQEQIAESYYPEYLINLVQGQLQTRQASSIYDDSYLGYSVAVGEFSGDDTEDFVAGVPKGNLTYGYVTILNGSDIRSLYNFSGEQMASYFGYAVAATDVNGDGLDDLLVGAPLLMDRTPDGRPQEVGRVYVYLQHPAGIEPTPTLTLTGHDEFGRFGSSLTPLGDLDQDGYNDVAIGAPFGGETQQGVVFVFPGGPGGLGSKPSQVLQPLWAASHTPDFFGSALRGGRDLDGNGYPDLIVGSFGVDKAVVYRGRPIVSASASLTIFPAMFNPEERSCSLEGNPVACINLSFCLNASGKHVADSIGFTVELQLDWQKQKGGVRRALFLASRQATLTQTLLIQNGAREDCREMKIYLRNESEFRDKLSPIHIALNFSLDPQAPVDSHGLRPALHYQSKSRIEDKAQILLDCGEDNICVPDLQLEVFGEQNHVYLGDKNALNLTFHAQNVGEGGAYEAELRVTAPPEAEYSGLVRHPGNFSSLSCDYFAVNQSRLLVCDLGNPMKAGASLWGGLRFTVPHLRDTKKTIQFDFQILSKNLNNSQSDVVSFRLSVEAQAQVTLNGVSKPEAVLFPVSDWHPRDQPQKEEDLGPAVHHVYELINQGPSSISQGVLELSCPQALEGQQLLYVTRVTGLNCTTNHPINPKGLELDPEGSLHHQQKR
T1 sequence (P08648 895-1049 partner limits assumed): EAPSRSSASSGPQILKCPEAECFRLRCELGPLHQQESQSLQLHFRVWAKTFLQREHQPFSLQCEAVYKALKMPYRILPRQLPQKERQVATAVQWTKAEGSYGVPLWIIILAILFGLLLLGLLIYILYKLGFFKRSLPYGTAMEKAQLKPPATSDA
T1 sequence (P05556 21-798): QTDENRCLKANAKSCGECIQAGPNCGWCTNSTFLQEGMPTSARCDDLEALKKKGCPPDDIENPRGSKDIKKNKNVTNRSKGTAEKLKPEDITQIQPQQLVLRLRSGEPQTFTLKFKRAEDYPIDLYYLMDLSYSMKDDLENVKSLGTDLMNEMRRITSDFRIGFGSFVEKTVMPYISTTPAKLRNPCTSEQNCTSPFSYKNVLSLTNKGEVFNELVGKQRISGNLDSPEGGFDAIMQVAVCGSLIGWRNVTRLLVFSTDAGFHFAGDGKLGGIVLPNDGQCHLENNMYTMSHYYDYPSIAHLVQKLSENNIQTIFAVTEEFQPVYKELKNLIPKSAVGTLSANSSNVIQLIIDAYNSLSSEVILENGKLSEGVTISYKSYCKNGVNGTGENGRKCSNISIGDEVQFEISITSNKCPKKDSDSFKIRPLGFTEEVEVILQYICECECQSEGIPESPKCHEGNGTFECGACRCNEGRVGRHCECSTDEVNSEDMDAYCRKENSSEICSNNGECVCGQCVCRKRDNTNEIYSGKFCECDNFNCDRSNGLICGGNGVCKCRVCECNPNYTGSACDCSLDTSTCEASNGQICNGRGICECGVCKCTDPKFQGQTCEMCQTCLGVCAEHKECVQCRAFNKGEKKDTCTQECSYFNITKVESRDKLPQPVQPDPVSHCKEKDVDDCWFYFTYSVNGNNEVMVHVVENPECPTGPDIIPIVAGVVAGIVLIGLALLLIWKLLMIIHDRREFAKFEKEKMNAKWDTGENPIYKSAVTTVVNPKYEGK

In the case of `CC(C)(C)c1cc(Br)cc([C@H](CC(=O)O)NC(=O)CNC(=O)c2cc(O)cc(NC3=NCC(O)CN3)c2)c1` (stereo partly drawn) [Example 1, (3S)—N-[3-hydroxy-5-[(1,4,5,6-tetrahydro-5-hydroxy-2-pyrimidinyl)amino]benzoyl]glycyl-3-(3-bromo-5-tert-butylphenyl)-β-alanine], the IC50 came out at 564 nM in experiment [1] and 4.2 nM in experiment [2].
